# Results taken from US7098199B2 (Sterix Limited, priority 1991, dated 2006).
# Like-named read-outs stand apart in the source and are kept apart here.
# Key:
# oestrone sulphatase [1] = target: T1, oestrone sulphatase (Homo sapiens, UniProt P08842); assay: Oestrone sulphatase inhibition in placental microsomes by flavanoid sulphamates; format: biochemical
# T1 sequence (P08842 22-583): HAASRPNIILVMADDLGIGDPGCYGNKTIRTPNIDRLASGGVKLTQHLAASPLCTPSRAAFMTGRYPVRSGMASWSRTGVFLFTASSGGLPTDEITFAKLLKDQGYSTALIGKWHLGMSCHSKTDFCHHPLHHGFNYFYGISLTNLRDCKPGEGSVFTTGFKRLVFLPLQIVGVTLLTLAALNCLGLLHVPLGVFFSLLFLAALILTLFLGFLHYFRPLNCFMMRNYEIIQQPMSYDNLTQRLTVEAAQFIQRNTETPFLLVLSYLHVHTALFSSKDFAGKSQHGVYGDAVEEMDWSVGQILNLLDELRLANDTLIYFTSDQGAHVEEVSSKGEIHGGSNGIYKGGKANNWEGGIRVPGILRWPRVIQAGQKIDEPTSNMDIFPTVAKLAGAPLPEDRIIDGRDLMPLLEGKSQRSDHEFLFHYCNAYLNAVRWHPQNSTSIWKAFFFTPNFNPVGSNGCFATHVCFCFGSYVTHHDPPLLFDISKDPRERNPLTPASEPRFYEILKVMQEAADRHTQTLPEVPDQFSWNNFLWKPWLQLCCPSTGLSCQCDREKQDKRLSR
# oestrone sulphatase [2] = target: T1, oestrone sulphatase
# Steroid sulphatase [3] = target: T2, Steroid sulphatase (Homo sapiens, UniProt P08842); assay: Steroid sulphatase activity in placental microsomes; conditions: 10 μM
# T2 sequence (P08842 22-583): T1 sequence (P08842 22-583)
# [4] = target: T3, Steroid sulphatase (Steryl Sulphatase EC3.1.6.2) (Homo sapiens, UniProt P08842); assay: Steroid sulphatase activity in intact MCF-7 cells; format: cell-based; conditions: for inhibition at 10 µM: MCF7; for Steroid Sulphatase Activity: mean ± 1 S.D.
# T3 construct: endogenous in cells; host or cells: MCF-7 human breast cancer cells
# T3 sequence (P08842 22-583): T1 sequence (P08842 22-583)
# Experimental: Steroid sulphatase is defined as: Steryl Sulphatase EC3.1.6.2.
# Steroid sulphatase activity was measured in vitro using intact MCF-7 human breast cancer cells. This hormone dependent cell line is widely used to study the control of human breast cancer cell growth. […] Cells were maintained in Minimal Essential Medium (MEM) (Flow Laboratories, Irvine, Scotland) containing 20 mM HEPES, 5% foetal bovine serum, 2 mM glutamine, nonessential amino acids and 0.075% sodium bicarbonate. Up to 30 replicate 25 cm^2 tissue culture flasks were seeded with approximately 1×10^5 cells/flask using the above medium. Cells were grown to 80% confluency and medium was changed every third day.
# Each batch of experiments included incubations of microsomes prepared from a sulphatase-positive human placenta (positive control) and flasks without cells (to assess apparent non-enzymatic hydrolysis of the substrate). The number of cell nuclei per flask was determined using a Coulter Counter after treating the cell monolayers with Zaponin. One flask in each batch was used to assess cell membrane status and viability using the Trypan Blue exclusion method (Phillips, H. J. (1973) In: Tissue culture and applications,[eds: Kruse, D. F. & Patterson, M. K.]; pp. 406–408; Academic Press, New York).
# Unpaired Student's t-test was used to test the statistical significance of results.
# An identical experimental protocol to that described in Example 4 was used to generate results for oestrone-3-N,N-diimethylsulphamate except that incubations contained oestrone-3-N,N-dimethylsulphaiate (5 concentrations: 0; 0.001 μM; 0.01 μM; 0.1 μM; 1 μM) in place of oestrone-3-sulphamate.
# Steroid sulphatase [5] = target: T4, Steroid sulphatase (Rattus norvegicus, UniProt P15589); assay: % inhibition in vivo from a single dose (Example 9); design: from tissue; host or cells: tissue of treated animals; tissue not given; conditions: single dose of 10 mg/kg
# T4 sequence (P15589 20-577): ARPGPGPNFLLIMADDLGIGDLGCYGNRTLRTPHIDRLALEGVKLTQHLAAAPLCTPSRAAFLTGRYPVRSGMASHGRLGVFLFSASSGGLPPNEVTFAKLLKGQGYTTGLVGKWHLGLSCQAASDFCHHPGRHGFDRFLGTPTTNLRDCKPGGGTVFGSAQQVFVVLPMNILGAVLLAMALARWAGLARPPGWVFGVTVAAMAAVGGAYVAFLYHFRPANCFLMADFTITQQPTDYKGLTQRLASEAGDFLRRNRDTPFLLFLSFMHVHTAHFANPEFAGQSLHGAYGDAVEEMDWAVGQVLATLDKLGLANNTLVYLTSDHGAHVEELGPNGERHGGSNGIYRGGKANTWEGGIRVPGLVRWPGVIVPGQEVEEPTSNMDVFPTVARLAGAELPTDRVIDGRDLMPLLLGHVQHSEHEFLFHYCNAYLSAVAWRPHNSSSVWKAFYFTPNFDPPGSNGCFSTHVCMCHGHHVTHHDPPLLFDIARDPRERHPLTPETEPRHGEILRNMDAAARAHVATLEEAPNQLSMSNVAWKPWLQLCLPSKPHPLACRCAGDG
# Steroid sulphatase [6] = target: T4, Steroid sulphatase; assay: Steroid sulphatase activity in liver microsome preparations from rats treated subcutaneously; format: in vivo; design: except that the tissue source was rat liver; from tissue; host or cells: liver of female Wistar rats; conditions: 10 mg/kg/day s.c. for 7 days, rat liver microsomes, mean ± 1 S.D., n = 3
# oestrone sulphatase [7] = target: T1, oestrone sulphatase; format: cell-based
# [8] = target: T3, Steroid sulphatase (Steryl Sulphatase EC3.1.6.2); assay: Steroid sulphatase activity in MCF-7 cells pre-incubated with inhibitor and washed; format: cell-based; conditions: pre-treatment 2 hours with 0.1 μM, cells washed 3 times
# [9] = concentration tested 1 mM (so in the source)
# [10] = concentration tested 10 mM (so in the source)
# [11] = concentration tested 25 mM (so in the source)
# [12] = concentration tested 50 mM (so in the source)
# [13] = concentration tested 100 mM (so in the source)
compound,measurement,setting,value
5-hydroxy-flavone-7-sulphamate [5-hydroxy flavone-7-sulphamate],% INHIBITION Sulphatase,oestrone sulphatase [1]; 1 μM,8%
same,% INHIBITION Sulphatase,oestrone sulphatase [1]; 10 μM,21%
C=CCc1cc2c(cc1OS(N)(=O)=O)CC[C@@H]1[C@@H]2CC[C@]2(C)C(=O)CC[C@@H]12 [2-allyl EMATE],% Inhibition (Mean) Placental Microsomes,oestrone sulphatase [2]; [9],45.6%
same,% Inhibition (Mean) Placental Microsomes,oestrone sulphatase [2]; [10],65.4%
same,% Inhibition (Mean) Placental Microsomes,oestrone sulphatase [2]; [11],75.3%
same,% Inhibition (Mean) Placental Microsomes,oestrone sulphatase [2]; [12],86.6%
same,% Inhibition (Mean) Placental Microsomes,oestrone sulphatase [2]; [13],89.6%
COc1cc2c(cc1OS(N)(=O)=O)CC[C@@H]1[C@@H]2CC[C@]2(C)C(=O)CC[C@@H]12 [2-methoxy EMATE],% Inhibition (Mean) Placental Microsomes,oestrone sulphatase [2]; [10],99.0%
same,% Inhibition (Mean) Placental Microsomes,oestrone sulphatase [2]; [12],99.7%
same,% Inhibition (Mean) Placental Microsomes,oestrone sulphatase [2]; [13],99.7%
CCCc1cc2c(cc1OS(N)(=O)=O)CC[C@@H]1[C@@H]2CC[C@]2(C)C(=O)CC[C@@H]12 [2-n-propyl EMATE],% Inhibition (Mean) Placental Microsomes,oestrone sulphatase [2]; [9],21.9%
same,% Inhibition (Mean) Placental Microsomes,oestrone sulphatase [2]; [10],43.2%
same,% Inhibition (Mean) Placental Microsomes,oestrone sulphatase [2]; [11],47.5%
same,% Inhibition (Mean) Placental Microsomes,oestrone sulphatase [2]; [12],61.1%
same,% Inhibition (Mean) Placental Microsomes,oestrone sulphatase [2]; [13],69.2%
C[C@]12CC[C@@H]3c4cc([N+](=O)[O-])c(OS(N)(=O)=O)cc4CC[C@H]3[C@@H]1CCC2=O [2-nitro EMATE],% Inhibition (Mean) Placental Microsomes,oestrone sulphatase [2]; concentration tested 0.05 mM (so in the source),44.5%
same,% Inhibition (Mean) Placental Microsomes,oestrone sulphatase [2]; concentration tested 0.5 mM (so in the source),93.9%
same,% Inhibition (Mean) Placental Microsomes,oestrone sulphatase [2]; concentration tested 5 mM (so in the source),99.0%
same,% Inhibition (Mean) Placental Microsomes,oestrone sulphatase [2]; [12],99.4%
C=CCc1c(OS(N)(=O)=O)ccc2c1CC[C@@H]1[C@@H]2CC[C@]2(C)C(=O)CC[C@@H]12 [4-allyl EMATE],% Inhibition (Mean) Placental Microsomes,oestrone sulphatase [2]; [9],29.1%
same,% Inhibition (Mean) Placental Microsomes,oestrone sulphatase [2]; [10],54.2%
same,% Inhibition (Mean) Placental Microsomes,oestrone sulphatase [2]; [11],59.0%
same,% Inhibition (Mean) Placental Microsomes,oestrone sulphatase [2]; [12],65.1%
same,% Inhibition (Mean) Placental Microsomes,oestrone sulphatase [2]; [13],71.9%
CCCc1c(OS(N)(=O)=O)ccc2c1CC[C@@H]1[C@@H]2CC[C@]2(C)C(=O)CC[C@@H]12 [4-n-propyl EMATE],% Inhibition (Mean) Placental Microsomes,oestrone sulphatase [2]; [9],13.7%
same,% Inhibition (Mean) Placental Microsomes,oestrone sulphatase [2]; [10],10.2%
same,% Inhibition (Mean) Placental Microsomes,oestrone sulphatase [2]; [11],15.7%
same,% Inhibition (Mean) Placental Microsomes,oestrone sulphatase [2]; [12],16.3%
same,% Inhibition (Mean) Placental Microsomes,oestrone sulphatase [2]; [13],23.7%
"NS(=O)(=O)Oc1ccc(C2CC(=O)c3c(O)cc(O)cc3O2)cc1 (centres unmarked) [5,7-dihydroxy flavanone 4′-sulphamate, 5.7-Dihydroxyflavanone 4′-O-sulphamate]",% INHIBITION Sulphatase,oestrone sulphatase [1]; 0.1 μM,30.4%
same,% INHIBITION Sulphatase,oestrone sulphatase [1]; 1 μM,79.1%
same,% INHIBITION Sulphatase,oestrone sulphatase [1]; 10 μM,98.1%
same,% INHIBITION Sulphatase,"oestrone sulphatase [1]; 10 μM, listed as 5,7-dihydroxy flavanone-4′-sulphamate",98%
COc1ccc(-c2coc3cc(OS(N)(=O)=O)cc(O)c3c2=O)cc1 [5-Hydroxy-4′-methoxyisoflavone 7-O-sulphamate],% INHIBITION Sulphatase,oestrone sulphatase [1]; 1 μM,1%
same,% INHIBITION Sulphatase,oestrone sulphatase [1]; 10 μM,50.6%
CCCCCCCOc1ccc(OS(N)(=O)=O)cc1 [9a],% Inhibition in Placental Microsomes at 10 μM,Steroid sulphatase [3],40±2%
same,melting point,,> 42 °C (dec.)
same,inhibition at 10 µM,[4],99 ± 2%
same,% Inhibition in vivo from a single dose of 10 mg/kg,Steroid sulphatase [5],22±3%
"COc1cc(CNC(=O)CCCC/C=C/C(C)C)ccc1OS(N)(=O)=O [9b, (E) Methyl-γ-methyl-6-nonenamide-N-(3-methboxyphenyl4-O-sulphanate)]",% Inhibition in Placental Microsomes at 10 μM,Steroid sulphatase [3],40±2%
same,inhibition at 10 µM,[4],99 ± 2%
same,% Inhibition in vivo from a single dose of 10 mg/kg,Steroid sulphatase [5],22±3%
"NS(=O)(=O)Oc1ccccc1[N+](=O)[O-] [9c, 2-Nitrophenol-O-sulfamate]",% Inhibition in Placental Microsomes at 10 μM,Steroid sulphatase [3],40±2%
same,inhibition at 10 µM,[4],99 ± 2%
same,% Inhibition in vivo from a single dose of 10 mg/kg,Steroid sulphatase [5],22±3%
"C[C@]12CC[C@@H]3c4ccc(OS(=O)(=O)O)cc4CC[C@H]3[C@@H]1CCC2=O [E1-S, Oestrone-3-sulphate, reference compound]",Steroid Sulphatase Activity,Steroid sulphatase [6]; assay substrate DHA-S,1.71 ± 0.1 nmol/30 min/200 mg protein
same,Steroid Sulphatase Activity,Steroid sulphatase [6]; assay substrate E1-S,20.6 ± 0.4 nmol/30 min/200 mg protein
"NS(=O)(=O)Oc1ccc(-c2coc3cc(OS(N)(=O)=O)cc(O)c3c2=O)cc1 [Isoflavone 5-hydroxy-4′,7-bissulphamate, 5-Hydroxy Isoflavone4′-O,O-Disulphamate]",% Inhibition MCF-7 Cells,oestrone sulphatase [7]; 0.1 μM,28%
"NS(=O)(=O)Oc1ccc(-c2coc3cc(O)cc(O)c3c2=O)cc1 [Isoflavone 5.7-dihydroxy-4′-sulphamate, 5,7-Dihydroxy Isoflavone-4′-O-Sulphamate]",% Inhibition MCF-7 Cells,oestrone sulphatase [7]; 0.1 μM,23%
same,% Inhibition MCF-7 Cells,oestrone sulphatase [7]; 1.0 μM,83%
same,% Inhibition MCF-7 Cells,oestrone sulphatase [7]; 10.0 μM,99%
"CN(C)S(=O)(=O)Oc1ccc2c(c1)CC[C@@H]1[C@@H]2CC[C@]2(C)C(=O)CC[C@@H]12 [Oestrone-3-N,N-dimethylsulphamate, oestrone-3-N.N-dimethylsulphamate]",% reduction over control (% inhibition),[8],18.8%
same,Steroid Sulphatase Activity,"[8]; mean ± 1 S.D., n = 3",53.1 ± 3.4 fmol/20 hr/10^6 cells
same,% reduction over control (% inhibition),[4]; inhibitor 0.001 μM,17.3%
same,Steroid Sulphatase Activity,[4]; inhibitor 0.001 μM,68.33 ± 3.2 fmol/20 hr/10^6 cells
same,% reduction over control (% inhibition),[4]; inhibitor 0.01 μM,44.3%
same,Steroid Sulphatase Activity,"[4]; inhibitor 0.01 μM, n = 3",46.0 ± 4.9 fmol/20 hr/10^6 cells
same,% reduction over control (% inhibition),[4]; inhibitor 0.1 μM,78.9%
same,Steroid Sulphatase Activity,"[4]; inhibitor 0.1 μM, n = 3",17.43 ± 4.3 fmol/20 hr/10^6 cells
same,% reduction over control (% inhibition),[4]; inhibitor 1 μM,85.6%
same,Steroid Sulphatase Activity,"[4]; inhibitor 1 μM, n = 3",11.89 ± 3.7 fmol/20 hr/10^6 cells
flavone-6-sulphamate,% INHIBITION Sulphatase,oestrone sulphatase [1]; 1 μM,26.8%
same,% INHIBITION Sulphatase,oestrone sulphatase [1]; 10 μM,89.5%
flavone-7-sulphamate,% INHIBITION Sulphatase,oestrone sulphatase [1]; 50 μM,56.3%
same,% INHIBITION Sulphatase,oestrone sulphatase [1]; 100 μM,75.3%
